Results taken from PMC9127750, “Structure-based design of CDC42 effector interaction inhibitors for the treatment of cancer” (Cell reports, 2022).
Several values for one entry are separate records, joined by “and”; a condition that tells them apart may be missing. Equal entries are not always repeated.

System: WM3248 melanoma cells, 486 antibodies
Experiment: Reverse phase protein arrays (RPPA)
Format: cell-based, Human
From the text: Pellets were snap frozen in liquid nitrogen and shipped to MD Anderson Cancer Center core RPPA facility for RPPA analysis (Table S5). Three biological replicates for each sample were generated.
Nomenclatures on the RPPA heatmaps: name_of_antibody.species_of_antibody.status_of_antibody. V - antibody validated; C - validation of antibody in progress; Q - antibody nonspecific; E – under evaluation; antibodies raised in M - mouse, G - goat, R - rabbit, or T - rat.

Structure (SMILES): CN(C)c1cccc(Nc2cc(-c3ccccc3)nc(C3CCNCC3)n2)c1 [ARN22089, N1,N1-dimethyl-N3-(6-phenyl-2-(piperidin-4-yl)pyrimidin-4-yl)benzene-1,3-diamine]
- Merlin.R.C Norm_20 Average (level 20 vs 0): 1.326
- Midkine.R.V Norm_20 Average (level 20 vs 0): 0.903
- Mitofusin.1.R.V Norm_20 Average (level 20 vs 0): 0.924
- Mitofusin.2.R.V Norm_20 Average (level 20 vs 0): 0.929
- Mnk1.R.V Norm_20 Average (level 20 vs 0): 0.909
- mTOR.R.V Norm_20 Average (level 20 vs 0): 0.966
- mTOR_pS2448.R.C Norm_20 Average (level 20 vs 0): 0.981
- HLA.DQA1.R.V Norm_20 (level 20 vs 0, replicates): 0.920
- HLA.DR.DP.DQ.DX.R.C Norm_20 (level 20 vs 0, replicates): 1.294 and 1.162
- HMHA1.R.V Norm_20 (level 20 vs 0, replicates): 0.981 and 0.880 and 1.188
- HNRNPK.R.V Norm_20 (level 20 vs 0, replicates): 0.984 and 1.119 and 0.871
- HSP27.M.C Norm_20 (level 20 vs 0, replicates): 0.670 and 0.856 and 0.906
- HSP27_pS82.R.V Norm_20 (level 20 vs 0, replicates): 0.842 and 0.885 and 1.155
- HSP60.R.V Norm_20 (level 20 vs 0, replicates): 1.130 and 0.832 and 1.026
- HSP70.R.C Norm_20 (level 20 vs 0, replicates): 1.062 and 1.459
- Hexokinase.I.R.C Norm_20 (level 20 vs 0, replicates): 1.110 and 1.189 and 1.305
- Hexokinase.II.R.V Norm_20 (level 20 vs 0, replicates): 1.291 and 0.878 and 1.104
- Hif.1αR.C Norm_20 (level 20 vs 0, replicates): 1.195 and 0.879 and 1.078
- Histone.H3.R.V Norm_20 (level 20 vs 0, replicates): 1.827 and 15.369 and 0.615
- Histone.H3_pS10.R.V Norm_20 (level 20 vs 0, replicates): 1.077 and 5.500 and 0.823
- IDO.R.C Norm_20 (level 20 vs 0, replicates): 0.970 and 0.836
- IGF1R_pY1135_Y1136.R.V Norm_20 (level 20 vs 0, replicates): 1.013 and 0.925
- IGFBP2.R.V Norm_20 (level 20 vs 0, replicates): 1.100 and 0.958 and 1.153
- IGFBP3.M.V Norm_20 (level 20 vs 0, replicates): 0.795 and 0.982
- IGFRb.R.C Norm_20 (level 20 vs 0, replicates): 1.223 and 1.234
- IL.6.R.C Norm_20 (level 20 vs 0, replicates): 0.955 (2×) and 1.003
- IMP3.R.C Norm_20 (level 20 vs 0, replicates): 0.919 and 1.030 and 0.952
- INPP4b.R.C Norm_20 (level 20 vs 0, replicates): 0.903 and 0.986
- IR.b.R.C Norm_20 (level 20 vs 0, replicates): 1.018 and 0.967 and 1.220
- IRF.1.R.V Norm_20 (level 20 vs 0, replicates): 0.991 and 0.831 and 1.052
- IRF.3.R.V Norm_20 (level 20 vs 0, replicates): 0.860 and 0.878 and 0.910
- IRS1.R.V Norm_20 (level 20 vs 0, replicates): 1.064 and 1.027 and 1.060
- IRS2.R.C Norm_20 (level 20 vs 0, replicates): 1.529 and 1.065
- JAB1.M.C Norm_20 (level 20 vs 0, replicates): 0.904 and 0.945 and 1.061
- JNK2.R.V Norm_20 (level 20 vs 0, replicates): 0.750 and 1.506
- JNK_pT183_Y185.R.C Norm_20 (level 20 vs 0, replicates): 1.059 and 0.941 and 1.008
- Jagged1.R.V Norm_20 (level 20 vs 0, replicates): 1.035 and 0.964 and 1.085
- Jak2.R.V Norm_20 (level 20 vs 0, replicates): 1.132 and 0.972 and 1.009
- KAP1.R.V Norm_20 (level 20 vs 0, replicates): 1.259 and 0.970 and 1.549
- KEAP1.R.V Norm_20 (level 20 vs 0, replicates): 1.169 and 0.932 and 0.897
- LAD1.R.V Norm_20 (level 20 vs 0, replicates): 0.881 and 0.761 and 1.249
- LC3A.B.R.C Norm_20 (level 20 vs 0, replicates): 1.429 and 1.134 and 1.161
- LCN2.R.V Norm_20 (level 20 vs 0, replicates): 2.531 and 1.008 and 1.326
- LDHA.R.C Norm_20 (level 20 vs 0, replicates): 0.857 and 1.499 and 2.319
- LRP6_pS1490.R.V Norm_20 (level 20 vs 0, replicates): 1.001
- Lasu1.R.V Norm_20 (level 20 vs 0, replicates): 1.199 and 1.294
- Lck.R.V Norm_20 (level 20 vs 0, replicates): 1.370 and 1.163 and 1.379
- Lyn.R.V Norm_20 (level 20 vs 0, replicates): 0.892 and 1.140 and 1.052
- MACC1.R.V Norm_20 (level 20 vs 0, replicates): 0.920 and 0.933
- MAPK_pT202_Y204.R.C Norm_20 (level 20 vs 0, replicates): 0.833 and 0.402 and 0.466
- MCT4.R.V Norm_20 (level 20 vs 0, replicates): 1.030 and 0.799 and 1.149
- MDM2_pS166.R.V Norm_20 (level 20 vs 0, replicates): 1.426 and 1.478 and 1.290
- MEK1.R.V Norm_20 (level 20 vs 0, replicates): 1.117 and 2.580
- MEK1_pS217_S221.R.V Norm_20 (level 20 vs 0, replicates): 0.743 and 0.841 and 1.347
- MEK2.R.V Norm_20 (level 20 vs 0, replicates): 0.956 and 1.186
- MERIT40.R.C Norm_20 (level 20 vs 0, replicates): 0.841 and 0.749 and 1.150
- MERIT40_pS29.R.V Norm_20 (level 20 vs 0, replicates): 0.968 and 0.879 and 1.231
- METTL3.R.V Norm_20 (level 20 vs 0, replicates): 1.164 and 1.324 and 1.250
- MIF.R.C Norm_20 (level 20 vs 0, replicates): 0.869 and 0.900 and 0.906
- MIG6.R.V Norm_20 (level 20 vs 0, replicates): 0.893 and 0.926 and 0.901
- MITF.R.V Norm_20 (level 20 vs 0, replicates): 1.001 and 1.191 and 1.081
- MLH1.M.V Norm_20 (level 20 vs 0, replicates): 0.708 and 0.840 and 1.119
- MLKL.R.V Norm_20 (level 20 vs 0, replicates): 0.758 and 0.733
- MMP2.R.V Norm_20 (level 20 vs 0, replicates): 0.895 and 0.974 and 0.934
- MMP14.R.V Norm_20 (level 20 vs 0, replicates): 1.924 and 1.667 and 1.374
- MR1.M.C Norm_20 (level 20 vs 0, replicates): 0.871 and 1.118 and 0.973
- MRAP.R.C Norm_20 (level 20 vs 0, replicates): 1.035 and 1.214 and 1.082
- MSH2.R.C Norm_20 (level 20 vs 0, replicates): 0.839 and 0.919 and 1.059
- MSH6.R.C Norm_20 (level 20 vs 0, replicates): 1.343 and 1.387 and 1.258
- MSI2.R.C Norm_20 (level 20 vs 0, replicates): 1.362 and 1.019
- MTCO1.M.V Norm_20 (level 20 vs 0, replicates): 1.305 and 0.956 and 1.145
- MTSS1.M.C Norm_20 (level 20 vs 0, replicates): 0.841 and 1.006 and 0.964
- Mcl.1.R.V Norm_20 (level 20 vs 0, replicates): 0.748 and 0.609 and 0.905
- MelanA.R.C Norm_20 (level 20 vs 0, replicates): 1.030 and 0.993 and 1.051
- Melanoma.gp100.R.C Norm_20 (level 20 vs 0, replicates): 1.080 and 0.890
- Merlin.R.C Norm_20 (level 20 vs 0, replicates): 1.344 and 1.329 and 1.306
- Midkine.R.V Norm_20 (level 20 vs 0, replicates): 0.858 and 0.901
- Mitofusin.1.R.V Norm_20 (level 20 vs 0, replicates): 0.931 and 0.783 and 1.058
- Mitofusin.2.R.V Norm_20 (level 20 vs 0, replicates): 0.808 and 0.772 and 1.206
- Mnk1.R.V Norm_20 (level 20 vs 0, replicates): 0.936 and 0.820 and 0.972
- mTOR.R.V Norm_20 (level 20 vs 0, replicates): 0.878 and 0.940 and 1.079
- mTOR_pS2448.R.C Norm_20 (level 20 vs 0, replicates): 0.856 and 0.896 and 1.190
